# According to US6664263B2, “1,8-naphthalimide imidazo{4,5,1-de}acridones with anti-tumor activity” (priority 2000, dated 2003):
# Read-outs that look alike come from different tables or passages of the source.
# Columns and labels:
# [1] = test system: A549 cells; assay: cells; conditions: for IC50: read-out: IC50 - drug concentration which causes 50% cell growth inhibition
# Description: (§1) Cancer Cell Lines. Human colon carcinoma HCT116 and HT29, human melanoma MELSK2, human lung cancer A549, human leukemia HL60 and human breast cancer MCF7 cells were purchased from the American Type Culture Collection (Rockville, Md.). Human pancreatic tumor cell lines 6.03 and 10.05 were a gift from Dr. Elizabeth Jaffe, Johns Hopkins University.
# (§2) In Vitro Cytotoxicity Studies. Cells were seeded in quadruplicate for each studied concentration in 96-well plates (100 μL of medium containing 2000-2500 cells per well) and were allowed to grow for 24 h (day 0). Stock solutions (2.5 mM) of test compounds were prepared freshly by dissolving their free base forms in distilled water-DMSO (50:50) mixture containing two equivalents of methanesulfonic acid and then diluted in distilled water to the concentration of 500 μM. These solutions were used to prepare 2 μM working solution and its 10-fold serial dilutions in appropriate media. 100 μL of drug containing medium or vehicle (control) was added to each well on day 1. The cytotoxicity was determined using two different methods: the MTT-based, CellTiter96™ Non-Radioactive Cell Proliferation Assay (Promega Inc., Madison, Wis.) according to instructions provided by the manufacturer, and/or the sulforhodamine B (SRB) method (Skehan et al., J. Natl. Cancer Inst. 82:1107-1112 (1990)). At the time at which drugs were added assays were performed on extra reference plates to determine the cell population density at time 0 (T0). After 96 h incubation at 37 ° C. in a humidified atmosphere containing 5% CO2, the assays were performed on test (T) and control (C) plates. The absorbance of the wells was determined by a Microplate Reader at […]. Cellular responses were calculated from the data as described previously: 100×[(T−T0)/(C−T0)] for T>T0 and 100×[(T−T0)/T0] for T<T0. (Monks et al., J. Natl. Cancer Inst. 83:757-766 (1991)).
# (§3) At the end of the test period the wells are treated with the MTT dye solution and incubated for 4 hours. Cells which are alive convert the yellow tetrazolium dye into the blue, insoluble formazan product. This precipitate is solubilized, and the absorption at 570 nm is read in an ELISA reader.
# [2] = test system: HT29 cells; assay: cells; conditions: for IC50: read-out: IC50 - drug concentration which causes 50% cell growth inhibition
# Description: as §1, §2, §3
# [3] = test system: HCT116 cells; assay: cells; conditions: for IC50: read-out: IC50 - drug concentration which causes 50% cell growth inhibition; for growth inhibition of HCT116 at 1 nM: MTT dose-response
# Description: as §1, §2, §3
# [4] = test system: MELSK2 cells; assay: cells; conditions: for IC50: read-out: IC50 - drug concentration which causes 50% cell growth inhibition
# Description: as §1, §2, §3
# [5] = test system: MCF7 cells; assay: cells; format: cell-based; conditions: for IC50: read-out: IC50 - drug concentration which causes 50% cell growth inhibition
# Source text: (§4) In Vitro Cytotoxicity Studies.
# [6] = test system: HL60 cells; assay: cells; format: cell-based; conditions: for IC50: read-out: IC50 - drug concentration which causes 50% cell growth inhibition
# Source text: as §4
# [7] = test system: HCT116, HT29, A549 and MelSK2 tumor cell lines; assay: MTT cell proliferation assay at 100 nM on four tumor cell lines (FIG. 2); format: cell-based; conditions: 96 hours; for cytotoxic activity against the three adenocarcinomas: HCT116, HT29, A549
# Description: as §1
# as §2, with “(Monks et al., J. Natl. Cancer Inst. 83:757-766 (1991)).” left out
# At the end of the test period the wells are treated with the MTT dye solution and incubated for 4 hours. […] This precipitate is solubilized, and the absorption at 570 nm is read in an ELISA reader.
# [8] = test system: NCI 60 human tumor cell line panel; assay: NCI 60 human tumor cell line panel; format: cell-based; conditions: NCI 60 panel
# [9] = test system: HCT116, HT29, A549 and Mel.SK2 tumor cell lines; assay: Sulforhodamine B (SRB) assay on the four tumor types (FIG. 4); format: cell-based; conditions: varying concentrations
# Source text: as §4
# [10] = test system: 6.03 pancreatic cancer cells; assay: Flow cytometry (FACS) cell cycle analysis, 6.03; format: cell-based, human; conditions: 6.03 cells
# Description: (§5) Flow Cytometry Analysis. A suspension of 0.5×10^6 cells in 8 ml of medium were placed in 25 cm^2 T flask and allowed to attach for 24 h. The cells were then exposed for 6 h to 100 nM of drug . After removal of drug the cells were washed with PBS. Fresh medium (8 ml) was added and incubation at 37° C. in 5% CO2 in complete humidity was continued for an additional five days. At appropriate intervals, treated and control cells were released from flasks by incubation with trypsin (0.05 mg/ml)/EDTA (0.02 mg/ml) for 5 min at 37° C., collected in ice-cold PBS, combined with the removed medium that might contain floating cells, and centrifuged at 4° C. Cell pellets were re-suspended in PBS containing 1% fetal bovine serum. The cells were fixed and stained for fluorescence-activated cell sorting according to standard procedures (Crissman et al., Cytometry 3:84-90(1992)). Fluorescence histograms were obtained on a Coulter EPICS753 Cell Sorter using an argon laser and mean peaks were analyzed.
# (§6) Similar cell cycle experiments were carried out on the 10.05 pancreatic cancer line.
# [11] = test system: 10.05 pancreatic cancer line; assay: Flow cytometry (FACS) cell cycle analysis, 10.05; format: cell-based, human; conditions: 10.05 cells
# Description: as §5, §6
# [12] = test system: HCT 116 colon cancer cell; assay: Flow cytometry (FACS) cell cycle analysis, HCT116; format: cell-based, human; conditions: 100 nM for 6 hrs, then culture
# Description: as §5
# In order to determine the mode of cell death induced by the compounds of the invention, the effect of the compound of Example 2 on the cell cycle was studied, utilizing Fluorescence Activated Cell Sorting SACS) analysis. HCT 116 colon cancer cell were treated with the compound of Example 2 for 6 hrs at a concentration of 100 nM, and then allowed to grow in culture for varying times.
# [13] = test system: pancreatic cell line 6.03; assay: SRB-based assay, pancreatic cell line 6.03 (FIG. 5); parameters: species or system human; conditions: 120 hrs exposure
# Source text: as §4
# (§7) The compound of Example 2 is also potently cytotoxic against extremely refractory pancreatic cancer cell lines. FIG. 5 presents the results of an SRB-based assay on the toxicity of Example 2 against the four cell lines mentioned above, and against two pancreatic cell lines, 6.03 and 10.05 (obtained from Dr. Elizabeth Jaffe, Johns Hopkins University, Baltimore Md.). […] were exposed to the agent for 120 hrs. It is clear that both of these lines are sensitive to the compound.
# [14] = test system: pancreatic cell line 10.05; assay: SRB-based assay, pancreatic cell line 10.05 (FIG. 5); parameters: species or system human; conditions: 120 hrs exposure
# Source text: as §4, §7
# [15] = test system: 10.05 pancreatic cancer cells; assay: Morphological examination of treated cells; format: cell-based, human; conditions: 10.05 cells, treated vs untreated
# Source text: The FACS analysis evidence of apoptosis was substantiated by morphological examination of the treated 10.05 pancreatic cancer cells. […] Similar results were obtained with the 6.03 cells.
# [16] = read-out: LC50 - drug concentration which causes 50% cell death, A549, 96 h incubation
# [17] = read-out: LC50 - drug concentration which causes 50% cell death, HT29, 96 h incubation
# [18] = read-out: LC50 - drug concentration which causes 50% cell death, HCT116, 96 h incubation
# [19] = read-out: LC50 - drug concentration which causes 50% cell death, MELSK2, 96 h incubation
# [20] = MCF7, 96 h incubation, read-out: LC50 - drug concentration which causes 50% cell death
# [21] = HL60, 96 h incubation, read-out: LC50 - drug concentration which causes 50% cell death
Compound,"IC50 ([1]; A549, 96 h incubation)","CC50 [1, 16]","IC50 ([2]; HT29, 96 h incubation)","CC50 [2, 17]","IC50 ([3]; HCT116, 96 h incubation)","CC50 [3, 18]","IC50 ([4]; MELSK2, 96 h incubation)","CC50 [4, 19]","IC50 ([5]; MCF7, 96 h incubation)","CC50 [5, 20]","IC50 ([6]; HL60, 96 h incubation)","CC50 [6, 21]",cytotoxic activity against the three adenocarcinomas [7],CC50 [1],CC50 [2],CC50 [3],growth inhibition of HCT116 at 1 nM ([3]; FIG. 3),CC50 [4],CC50 [5],CC50 [6],further results
CN(CCCNc1ccc2ncn3c4ccccc4c(=O)c1c23)CCCN1C(=O)c2cccc3cc([N+](=O)[O-])cc(c23)C1=O [Example 1],25 nM,500 nM,25 nM,400 nM,8 nM,220 nM,150 nM,> 1000 nM,50 nM,> 1000 nM,120 nM,500 nM,–,–,–,–,–,–,–,–,–
O=C1c2cccc3cc([N+](=O)[O-])cc(c23)C(=O)N1CCCN1CCN(CCCNc2ccc3ncn4c5ccccc5c(=O)c2c34)CC1 [Example 2],0.6 nM,–,0.9 nM,–,0.5 nM,–,4 nM,–,3.2 nM,–,3.5 nM,–,outstanding cytotoxic activity,35 nM,65 nM,32 nM,almost complete growth inhibition,60 nM,> 1000 nM,33 nM,"median activity, growth inhibition of all of the tumor cell lines [8]: nanomolar range; cytotoxic activity in the SRB assay compared with MTT [9]: essentially mirror the results obtained with the MTT end-point; apoptosis by cell cycle analysis [10]: strong evidence of apoptosis; apoptosis (growth of the sub-G1 fraction) at 144 hrs [11]: substantial apoptosis; cell cycle effect at 24 hrs ([12]; 24 hrs): growth arrested at G2-M; sub-G1 fraction (apoptotic death) at 96 hrs ([12]; 96 hrs): dominated the distribution; effect on line 6.03 at 100 nM [13]: growth arrested; effect on line 10.05 at 1 μM [14]: substantial cell death; morphology of treated cells [15]: evidence of chromatin fragmentation"
O=C1c2cccc3cc([N+](=O)[O-])cc(c23)C(=O)N1CCCN1CCN(CCCNc2ccc3ncn4c5ccc(F)cc5c(=O)c2c34)CC1 [Example 4],0.6 nM,–,1.5 nM,–,0.5 nM,–,4 nM,–,3.5 nM,–,3.5 nM,–,outstanding cytotoxic activity,35 nM,35 nM,35 nM,almost complete growth inhibition,70 nM,> 1000 nM,33 nM,–
Nc1cc2c3c(cccc3c1)C(=O)N(CCCN1CCN(CCCNc3ccc4ncn5c6ccccc6c(=O)c3c45)CC1)C2=O [Example 6],2.5 nM,100 nM,8 nM,750 nM,2.2 nM,80 nM,15 nM,750 nM,32 nM,> 1000 nM,5 nM,450 nM,–,–,–,–,–,–,–,–,–
Nc1cc2c3c(cccc3c1)C(=O)N(CCCN1CCN(CCCNc3ccc4ncn5c6ccc(F)cc6c(=O)c3c45)CC1)C2=O [Example 8],2 nM,–,3.5 nM,–,1.8 nM,–,20 nM,–,46 nM,–,4 nM,–,–,150 nM,> 1000 nM,230 nM,–,> 1000 nM,> 1000 nM,450 nM,–
"CN(C)CCN1C(=O)c2cccc3cc([N+](=O)[O-])cc(c23)C1=O [Mitonafide, mitonafide, reference compound]",–,–,–,–,–,–,–,–,–,–,–,–,–,–,–,–,–,–,–,–,"activity at 100 nM drug concentration ([7]; HCT116, HT29, A549, MelSK2): not very active; IC50 ([1]; Homo sapiens, A549, 96 h): 65 nM; CC50 ([1]; Homo sapiens, A549, 96 h, read-out: LC50 - drug concentration which causes 50% cell death): 800 nM; IC50 ([2]; Homo sapiens, HT-29, 96 h): 300 nM; concentration at which almost complete growth inhibition is reached ([3]; HCT116, MTT dose-response, FIG. 3): 1 µM; IC50 ([3]; Homo sapiens, HCT-116, 96 h): 250 nM; CC50 ([3]; Homo sapiens, HCT-116, 96 h, read-out: LC50 - drug concentration which causes 50% cell death): > 1000 nM; IC50 ([4]; Homo sapiens, 96 h): 150 nM; CC50 ([4]; Homo sapiens, 96 h, read-out: LC50 - drug concentration which causes 50% cell death): 700 nM; IC50 ([5]; Homo sapiens, MCF7, 96 h): 245 nM; CC50 ([5]; Homo sapiens, MCF7, 96 h, read-out: LC50 - drug concentration which causes 50% cell death): > 1000 nM; IC50 ([6]; Homo sapiens, HL-60, 96 h): 45 nM; CC50 ([6]; Homo sapiens, HL-60, 96 h, read-out: LC50 - drug concentration which causes 50% cell death): 400 nM"
